Data from patent publication US5578634A, “1H-indole-3-acetic acid hydrazide sPLA2 inhibitors” (Eli Lilly and Company, priority 1995, dated 1996).

The compounds below were run against T1, human secreted PLA2 (Homo sapiens, UniProt P14555) (assay: chromogenic assay of recombinant human secreted phospholipase A2 inhibition (Assay Example 1)). Conditions: mean of 3-5 tests; 40° C., 30 minutes, pH 7.5, 405 nanometers; read-out: Inhibition of human secreted PLA2 IC50 ± mean deviation (3-5 tests).
T1 sequence (P14555 21-144): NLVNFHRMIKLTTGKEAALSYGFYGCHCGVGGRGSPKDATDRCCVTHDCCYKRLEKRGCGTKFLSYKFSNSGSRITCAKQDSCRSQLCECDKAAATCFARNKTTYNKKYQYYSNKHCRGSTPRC
Format: biochemical
Description: The assay described herein has been adapted for high volume screening using 96 well microtiter plates. A general description of this assay method is found in the article, "Analysis of Human Synovial Fluid Phospholipase A2 on Short Chain Phosphatidylcholine-Mixed Micelles: Development of a Spectrophotometric Assay Suitable for a Microtiterplate Reader", by Laure J. Reynolds, Lori L. […] Reagents, the disclosure of which is incorporated herein by reference. REACTION BUFFER CaCl2.2H20 (1.47 g/L) KCl (7.455 g/L) Bovine Serum Albumin (fatty acid free) (1 g/L) (Sigma A-7030, product of Sigma Chemical Co. St. Louis Mo., USA) TRIS HCl (3.94 g/L) pH 7.5 (adjust with NaOH) ENZYME BUFFER […] 0.2 NaCl Adjust pH to 4.5 with acetic acid DTNB […] RACEMIC DIHEPTANOYL THIO - PC […] TRITON X-100™ prepare at 6.249 mg/ml in reaction buffer to equal […]. REACTION MIXTURE A measured volume of racemic dipheptanoyl thio PC supplied in chloroform at a concentration of 100 mg/ml is taken to dryness and redissolved in 10 millimolar TRITON X-100™ nonionic detergent aqueous solution. Reaction Buffer is added to the solution, then DTNB to give the Reaction Mixture. The reaction mixture thus obtained contains 1 mM diheptanoly thio-PC substrate, 0.29 mM Triton X-100™ detergent, and 0.12 mM DTMB in a buffered aqueous solution at pH 7.5. Assay Procedure: 1. Add 0.2 ml reaction mixture to all wells; 2. Add 10 ul test compound (or solvent blank) to appropriate wells, mix 20 seconds; 3. Add 50 nanograms of sPLA2 (10 microliters) to appropriate wells; 4. Incubate plate at 40° C. for 30 minutes; […] Read absorbance of wells at 405 nanometers with an automatic plate reader. All compounds were tested in triplicate. Typically, compounds were tested at a final concentration of 5 ug/ml. […] Lack of color development at 405 nanometers evidenced inhibition. Compounds initially found to be active were reassayed to confirm their activity and, if sufficiently active, IC50 values were determined. […] In all cases, % inhibition measured at 405 nanometers generated by enzyme reactions containing inhibitors relative to the uninhibited control reactions was determined. Each sample was titrated in triplicate and result values were averaged for plotting and calculation of IC50 values. […] IC50 values were determined at least three times for each compound tested.
For “5-Methoxy-1-(phenylmethyl)-1H-indole-3-butanoic acid hydrazide [Example 66]”, the IC50 was 9.96 ± 5.61 µM.
“5-Methoxy-1-(phenylmethyl)-1H-indole-3-propanoic acid hydrazide [Example 64]” gave an IC50 of 5.9 ± 2.99 µM.
For “5-Methoxy-2-methyl-1-(phenylmethyl)-1H-indole-3-butanoic acid hydrazide [Example 67]”, the IC50 was 24.2 ± 10.7 µM.
Work on “5-Methoxy-2-methyl-1-(phenylmethyl)-1H-indole-3-propanoic acid hydrazide [Example 65]” yielded an IC50 of 32.6 µM.
`CCOc1ccc2c(c1)c(CC(=O)NN)c(C)n2Cc1ccccc1` [Example 1, 5-Ethoxy-2-methyl-1-(phenylmethyl)-1H-indole-3-acetic acid hydrazide] gave an IC50 of 0.8 ± 0.25 µM.
Work on `CCc1c(CC(=O)NN)c2cc(C)ccc2n1Cc1ccccc1` [Example 6, 2-Ethyl-5-methyl-1-(phenylmethyl)-1H-indole-3-acetic acid hydrazide] yielded an IC50 of 0.67 ± 0.24 µM.
`CCc1c(CC(=O)NN)c2cc(F)ccc2n1Cc1ccccc1` [Example 7, 2-Ethyl-5-fluoro-1-(phenylmethyl)-1H-indole-3-acetic acid hydrazide] gave an IC50 of 1.52 ± 0.56 µM.
`Cc1c(CC(=O)NN)c2ccc(Cl)cc2n1Cc1ccccc1` [Example 8, 6-Chloro-2-methyl-1-(phenylmethyl)-1H-indole-3-acetic acid hydrazide] showed an IC50 of 1.14 ± 0.44 µM.
Compound `NNC(=O)Cc1cn(Cc2ccccc2)c2ccc(OCc3ccccc3)cc12` [Example 9, 5-Benzyloxy-1-(phenylmethyl)-1H-indole-3-acetic acid hydrazide] has an IC50 of 2.31 ± 0.65 µM.
For `Cc1c(CC(=O)NN)c2ccccc2n1Cc1ccccc1` [Example 10, 2-Methyl-1-(phenylmethyl)-1H-indole-3-acetic acid hydrazide], the IC50 was 2.36 ± 0.5 µM.
In the case of `COc1ccc2ccccc2c1Cn1c(C)c(CC(=O)NN)c2ccccc21` [Example 11, 1-(2-Methoxy-1-naphthalenylmethyl)-2-methyl-1H-indole-3-acetic acid hydrazide], the IC50 is reported as 11.1 ± 1.8 µM.
`COc1ccc2c(c1)c(CC(=O)NN)cn2Cc1ccccc1-c1ccccc1` [Example 12, 1-([1,1'-Biphenyl]-2-ylmethyl)-5-methoxy-1H-indole-3-acetic acid hydrazide] was tested, and the IC50 was 5.49 ± 4.29 µM.
`COc1ccc2c(c1)c(CC(=O)NN)c(C)n2CC(C)C` [Example 13, 5-Methoxy-2-methyl-1-(2-methyl-1-propyl)-1H-indole-3-acetic acid hydrazide] gave an IC50 of 9.88 ± 3.41 µM.
With `CCCCCCCCCCn1c(C)c(CC(=O)NN)c2cc(OC)ccc21` [Example 14, 1-Decyl-5-methoxy-2-methyl-1H-indole-3-acetic acid hydrazide] the IC50 was 7.08 ± 1.61 µM.
`CCCCCCCCCCCCCCCCCCn1c(C)c(CC(=O)NN)c2cc(OC)ccc21` [Example 15, 5-Methoxy-2-methyl-1-octadecyl-1H-indole-3-acetic acid hydrazide] showed an IC50 greater than 100 µM.
Compound `COc1ccc2c(c1)c(CC(=O)NN)c(C)n2Cc1ccccc1Cl` [Example 17, 1-(2-Chlorophenylmethyl)-5-methoxy-2-methyl-1H-indole-3-acetic acid hydrazide] has an IC50 of 1.71 ± 0.24 µM.
Work on `COc1ccc2c(c1)c(CC(=O)NN)c(C)n2Cc1ccc(Cl)cc1` [Example 19, 1-(4-Chlorophenylmethyl)-5-methoxy-2-methyl-1H-indole-3-acetic acid hydrazide] yielded an IC50 of 9.28 ± 2.06 µM.
In the case of `COc1ccc2c(c1)c(CC(=O)NN)c(C)n2Cc1cc(Cl)ccc1Cl` [Example 20, 1-(2,5-Dichlorophenylmethyl)-5-methoxy-2-methyl-1H-indole-3-acetic acid hydrazide], the IC50 is reported as 9.39 ± 2.3 µM.
With `COc1ccc2c(c1)c(CC(=O)NN)c(C)n2Cc1c(Cl)cccc1Cl` [Example 21, 1-(2,6-Dichlorophenylmethyl)-5-methoxy-2-methyl-1H-indole-3-acetic acid hydrazide] the IC50 was 0.64 ± 0.19 µM.
With `COc1ccc2c(c1)c(CC(=O)NN)c(C)n2Cc1cccc(C)c1` [Example 22, 5-Methoxy-1-[(3-methylphenyl)methyl]-2-methyl-1H-indole-3-acetic acid hydrazide] the IC50 was 1.54 ± 0.67 µM.
Work on `COc1ccc2c(c1)c(CC(=O)NN)c(C)n2Cc1cccc(C(F)(F)F)c1` [Example 23, 5-Methoxy-2-methyl-1-[(3-trifluoromethylphenyl)methyl]-1H-indole-3-acetic acid hydrazide] yielded an IC50 of 0.89 ± 0.52 µM.
Compound `COc1ccc2c(c1)c(CC(=O)NN)c(C)n2Cc1ccccc1OC` [Example 26, 5-Methoxy-1-[(2-methoxyphenyl)methyl]-2-methyl-1H-indole-3-acetic acid hydrazide] has an IC50 of 3.26 ± 1.74 µM.
In the case of `COc1cccc(Cn2c(C)c(CC(=O)NN)c3cc(OC)ccc32)c1` [Example 27, 5-Methoxy-1-[(3-methoxyphenyl)methyl]-2-methyl-1H-indole-3-acetic acid hydrazide], the IC50 is reported as 2.18 ± 0.51 µM.
`COc1ccc(Cn2c(C)c(CC(=O)NN)c3cc(OC)ccc32)cc1` [Example 28, 5-Methoxy-1-[(4-methoxyphenyl)methyl]-2-methyl-1H-indole-3-acetic acid hydrazide] gave an IC50 of 11.7 ± 4.04 µM.
Compound `CCCCCCCCCCOc1cccc(Cn2c(C)c(CC(=O)NN)c3cc(OC)ccc32)c1` [Example 29, 1-[(3-Decyloxyphenyl)methyl]-5-methoxy-2-methyl-1H-indole-3-acetic acid hydrazide] has an IC50 of 0.84 ± 0.31 µM.
In the case of `COc1ccc2c(c1)c(CC(=O)NN)c(C)n2Cc1ccc(OCc2ccccc2)cc1` [Example 32, 1-[(4-Benzyloxyphenyl)methyl]-5-methoxy-2-methyl-1H-indole-3-acetic acid hydrazide], the IC50 is reported as 2.28 ± 0.57 µM.
With `COc1ccc2c(c1)c(CC(=O)NN)c(C)n2Cc1ccc(O)cc1` [Example 33, 1-[(4-Hydroxyphenyl)methyl]-5-methoxy-2-methyl-1H-indole-3-acetic acid hydrazide] the IC50 was 5.96 ± 2.03 µM.
`COc1ccc2c(c1)c(CC(=O)NN)c(C)n2Cc1cccc([N+](=O)[O-])c1` [Example 34, 5-Methoxy-2-methyl-1-[(3-nitrophenyl)methyl]-1H-indole-3-acetic acid hydrazide] gave an IC50 of 15.2 ± 0.77 µM.
In the case of `COc1ccc2c(c1)c(CC(=O)NN)c(C)n2Cc1cccc(N)c1` [Example 35, 1-[(3-Aminophenyl)methyl]-5-methoxy-2-methyl-1H-indole-3-acetic acid hydrazide], the IC50 is reported as 7.12 ± 4.89 µM.
`COc1ccc2c(c1)c(CC(=O)NN)c(C)n2C(C)c1ccccc1` (stereo not shown) [Example 36, 5-Methoxy-2-methyl-1-(1-phenylethyl)-1H-indole-3-acetic acid hydrazide] gave an IC50 of 5.32 ± 1.93 µM.
For `COc1ccc2c(c1)c(CC(=O)NN)c(C)n2Cc1ccccn1` [Example 37, 5-Methoxy-2-methyl-1-[(2-pyridyl)methyl]-1H-indole-3-acetic acid hydrazide], the IC50 was 27.2 ± 7.89 µM.
For `COc1ccc2c(c1)c(CC(=O)NN)c(C)n2Cc1cccnc1` [Example 38, 5-Methoxy-2-methyl-1-[(3-pyridyl)methyl]-1H-indole-3-acetic acid hydrazide], the IC50 was 84.2 ± 19.4 µM.
In the case of `COc1ccc2c(c1)c(CC(=O)NN)c(C)n2Cc1ccncc1` [Example 39, 5-Methoxy-2-methyl-1-[(4-pyridyl)methyl]-1H-indole-3-acetic acid hydrazide], the IC50 is reported as 45.9 ± 13.1 µM.
Compound `COc1ccc2c(c1)c(CC(=O)NN)c(C)n2Cc1ccc2ccccc2n1` [Example 40, 5-Methoxy-2-methyl-1-[(2-quinolyl)methyl]-1H-indole-3-acetic acid hydrazide] has an IC50 of 8.15 ± 3.27 µM.
